How the values were obtained:
[1] = target: T1, FAPα enzyme (Homo sapiens, UniProt Q12884); experiment: FAPα enzyme activity test (Z-Gly-Pro-AMC substrate, fluorescence); format: biochemical; details: for IC50 value against FAPα enzyme, times that of the positive drug FAPI-04: relative to FAPI-04; for inhibition at 0.1 µM: read-out: Inhibition rate 100 nM
T1 sequence (Q12884 1-760): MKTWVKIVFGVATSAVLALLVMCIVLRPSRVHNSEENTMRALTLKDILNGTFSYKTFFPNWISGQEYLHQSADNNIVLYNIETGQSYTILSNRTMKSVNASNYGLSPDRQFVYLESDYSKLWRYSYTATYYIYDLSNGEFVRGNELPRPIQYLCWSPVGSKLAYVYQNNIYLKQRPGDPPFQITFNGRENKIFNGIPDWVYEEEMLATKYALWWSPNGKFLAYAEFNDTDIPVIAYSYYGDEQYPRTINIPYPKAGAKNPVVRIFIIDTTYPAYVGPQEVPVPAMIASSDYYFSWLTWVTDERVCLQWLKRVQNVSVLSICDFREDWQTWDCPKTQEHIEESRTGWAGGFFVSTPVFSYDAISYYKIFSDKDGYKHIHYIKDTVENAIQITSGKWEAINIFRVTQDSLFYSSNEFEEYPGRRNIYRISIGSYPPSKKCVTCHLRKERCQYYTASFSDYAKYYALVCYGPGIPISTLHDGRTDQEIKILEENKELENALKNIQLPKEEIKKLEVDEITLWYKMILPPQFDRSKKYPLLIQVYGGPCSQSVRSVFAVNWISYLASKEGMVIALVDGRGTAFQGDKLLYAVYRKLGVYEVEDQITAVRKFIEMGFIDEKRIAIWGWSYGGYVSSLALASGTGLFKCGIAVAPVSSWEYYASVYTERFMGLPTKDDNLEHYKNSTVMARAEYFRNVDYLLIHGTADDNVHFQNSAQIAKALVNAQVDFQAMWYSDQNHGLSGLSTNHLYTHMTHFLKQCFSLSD
Procedure: The substrate (Z-Gly-Pro-AMC) was diluted with DMSO to prepare a 0.5 mM stock solution. Before each experiment, the 0.5 mM stock solution was diluted with PBS to 50 µM for later use. The FAPα protein was diluted with PBS to 0.5 ng/µl for later use. The test compounds and positive control were diluted with PBS to a concentration of 100 nM or 200 nM for the determination of single-point inhibition rate. […] The test compounds and positive control were subjected to a 5-fold serial dilution with PBS to obtain 8 gradients for later use, with the highest concentration being 10 µM, and the lowest concentration being […]. Test method: 85 µl of the FAPα dilution and 10 µl of the compound dilution were added to a microplate, uniformly mixed and incubated at 37°C for 10 min. Then, 5 µL of 50 µM substrate was added, uniformly mixed and incubated at 37°C for 10 min. The microplate was read on a microplate reader, with an excitation wavelength of 380 nm and an emission wavelength of 465 nm.

[2] = test system: U-87 MG cells; experiment: PET imaging test of radiolabelled compounds in U-87 MG tumour-bearing mice; format: in vivo, BALB/c nude mice
Procedure: Cell information: U-87 MG cells (Wuhan Pricella Biotechnology Co., Ltd., Cat. No.: CL-0238, Lot No.: YBMIL8BQHO); Culture conditions: U-87 MG cell specific medium (MEM + 10% FBS + 1% P/S); Number of passages: 6-9;
Germline: BALB/c nude mice; age: 4-5 weeks old; Body weight: 15-22 g;
A sufficient quantity of U-87 MG cells was prepared and inoculated into the posterior position of the right forelimb of […] mice in an inoculation volume of 100 µL, containing 50% Matrigel and 4 × 10^6 cells.
The workbench surface was wiped with 75% medical alcohol and covered with a disposable sterile tablecloth. 0.5 mL insulin syringes, alcohol swabs, cotton swabs and a marking pen were prepared in the injection room. The mice were placed in a mouse restrainer, and the tails of the mice were disinfected with alcohol swabs. 0.2-0.5 mL of the formulated test sample was injected into each mouse via the tail vein, with the time of each injection, the activity of the syringe and the activity of the empty syringe recorded. Tumour-bearing mice were anesthetized with isoflurane, then placed in a prone position on small animal PET beds and fixed. PET static image acquisition was performed for 10 min at 0.5 h, 1 h, 2 h and 4 h after administration; a whole-body CT scan was performed before each static scan to obtain distribution images of the labelled compound throughout the body of tumour-bearing mice. PET images at different time points after administration were obtained for each experimental animal. Major organs were selected and delineated, specifically including: parts such as tumour, muscle, bone, lung, brain, liver and kidney. The radioactive accumulation and clearance of the labelled compounds in tumours and non-target tissues of tumour-bearing mice were observed.
Using the same experimental method as in Example 2, the ratio of radioactive accumulation of the labelled compound ^18F-FAPI-42 in tumours to non-target tissues in tumour-bearing mice was observed. Table 4.1 Ratios of 18F-FAPI-42 in tumours to non-target organs (tissues)

Structure (SMILES): N#C[C@@H]1CC(F)(F)CN1C(=O)CNC(=O)c1ccnc2ccc(NC(=O)[C@H]3CC[C@H](CNC(=O)CN4CCN(CC(=O)O)CCN(CC(=O)O)CC4)CC3)cc12 (relative stereo) [Compound 2, 6-(trans-4-(((2-(4,7-dicarboxymethyl-1,4,7-triazacyclononan-1-yl)acetyl)amino)methyl)cyclohexan-1-yl)carboxamido-4-((S)-2-(2-cyano-4,4-difluoropyrrolidin-1-yl)-2-oxoethyl)carbamoylquinoline]
- IC50 value against FAPα enzyme, times that of the positive drug FAPI-04 [1]: 0.71 times

Structure (SMILES): N#C[C@@H]1CC(F)(F)CN1C(=O)CNC(=O)c1ccnc2ccc(NC(=O)[C@H]3CC[C@H](CNC(=O)CN4CCN(CC(=O)O)CCN(CC(=O)O)CCN(CC(=O)O)CC4)CC3)cc12 [Compound 1, 6-(trans-4-(((2-(4,7,10-tricarboxymethyl-1,4,7,10-tetraazacyclododecan-1-yl)acetyl)amino)methyl)cyclohexan-1-yl)carboxamido-4-((S)-2-(2-cyano-4,4-difluoropyrrolidin-1-yl)-2-oxoethyl)carbamoylquinoline]
- IC50 [1]: 720 pM
- inhibition at 0.1 µM ([1]; 100 nM compound): 84.1%

Structure (SMILES): N#C[C@@H]1CC(F)(F)CN1C(=O)CNC(=O)c1ccnc2ccc(NC(=O)C3CCC4(CC3)CN(C(=O)CN3CCN(CC(=O)O)CCN(CC(=O)O)CCN(CC(=O)O)CC3)CCO4)cc12 (stereo partly drawn) [Compound 3, 6-((6r,9r)-N-(2-(4,7,10-tricarboxymethyl-1,4,7,10-tetraazacyclododecan-1-yl)acetyl)-1-oxa-4-azaspiro[5.5]undecan-9-yl)carboxamido-4-((S)-2-(2-cyano-4,4-difluoropyrrolidin-1-yl)-2-oxoethyl)carbamoylquinoline]
- IC50 [1]: 570 pM
- Inhibition rate 100 nM ([1]; 100 nM compound): 84.70%

Structure (SMILES): N#C[C@@H]1CC(F)(F)CN1C(=O)CNC(=O)c1ccnc2ccc(OCCCN3CCN(C(=O)CN4CCN(CC(=O)O)CCN(CC(=O)O)CC4)CC3)cc12 [FAP-42]
- IC50 value against FAPα enzyme, times that of the positive drug FAPI-04 [1]: 2.27 times

Structure (SMILES): N#C[C@@H]1CC(F)(F)CN1C(=O)CNC(=O)c1ccnc2ccc(OCCCN3CCN(C(=O)CN4CCN(CC(=O)O)CCN(CC(=O)O)CCN(CC(=O)O)CC4)CC3)cc12 [FAPI-04]
- inhibition at 0.1 µM ([1]; 100 nM compound): 92.3%

Structure (SMILES): N#C[C@@H]1CC(F)(F)CN1C(=O)CNC(=O)c1ccnc2ccc(OCCCN3CCN(C(=O)CN4CCN5CCN(CC4)CC(=O)[O][Al]([18F])[O]C(=O)C5)CC3)cc12 [^18F-FAPI-42]
- Ratio Tumour/gallbladder ([2]; 0.5 h): 1.21
- Ratio Tumour/intestine ([2]; 0.5 h): 3.14
- Ratio Tumour/gallbladder ([2]; 1.5 h): 1.42
- Ratio Tumour/intestine ([2]; 1.5 h): 1.28
- Ratio Tumour/gallbladder ([2]; 3.0 h): 3.15
- Ratio Tumour/intestine ([2]; 3.0 h): 1.19

Structure (SMILES): N#C[C@@H]1CC(F)(F)CN1C(=O)CNC(=O)c1ccnc2ccc(OCCCN3CCN(C(=O)CN4CCN(CC(=O)[O-])CCN(CC(=O)[O-])CCN(CC(=O)[O-])CC4)CC3)cc12.[68Ga+3] [^68Ga-FAPI-04]
- Ratio Tumour/brain ([2]; 0.5 h): 6.36
- Ratio Tumour/gallbladder ([2]; 0.5 h): 4.89
- Ratio Tumour/kidney ([2]; 0.5 h): 3.35
- Ratio Tumour/liver ([2]; 0.5 h): 4.79
- Ratio Tumour/lung ([2]; 0.5 h): 4.73
- Ratio Tumour/muscle ([2]; 0.5 h): 15.38
- Ratio Tumour/shoulder joint ([2]; 0.5 h): 2.62
- Uptake Brain ([2]; 0.5 h after administration): 1.16 ± 0.28 % ID/g
- Uptake Gallbladder ([2]; 0.5 h after administration): 1.51 ± 0.18 % ID/g
- Uptake Kidney ([2]; 0.5 h after administration): 2.20 ± 0.10 % ID/g
- Uptake Liver ([2]; 0.5 h after administration): 1.54 ± 0.23 % ID/g
- Uptake Lung ([2]; 0.5 h after administration): 1.56 ± 0.45 % ID/g
- Uptake Muscle ([2]; 0.5 h after administration): 0.48 ± 0.39 % ID/g
- Uptake Shoulder joint ([2]; 0.5 h after administration): 2.82 ± 0.57 % ID/g
- Uptake Tumour (max) ([2]; 0.5 h after administration): 13.17 ± 3.28 % ID/g
- Uptake Tumour (mean) ([2]; 0.5 h after administration): 7.38 ± 1.41 % ID/g
- Ratio Tumour/brain ([2]; 1.0 h): 9.13
- Ratio Tumour/gallbladder ([2]; 1.0 h): 5.46
- Ratio Tumour/kidney ([2]; 1.0 h): 3.42
- Ratio Tumour/liver ([2]; 1.0 h): 5.76
- Ratio Tumour/lung ([2]; 1.0 h): 5.81
- Ratio Tumour/muscle ([2]; 1.0 h): 13.89
- Ratio Tumour/shoulder joint ([2]; 1.0 h): 2.72
- Uptake Brain ([2]; 1 h after administration): 0.70 ± 0.09 % ID/g
- Uptake Gallbladder ([2]; 1 h after administration): 1.17 ± 0.36 % ID/g
- Uptake Kidney ([2]; 1 h after administration): 1.87 ± 0.20 % ID/g
- Uptake Liver ([2]; 1 h after administration): 1.11 ± 0.31 % ID/g
- Uptake Lung ([2]; 1 h after administration): 1.10 ± 0.12 % ID/g
- Uptake Muscle ([2]; 1 h after administration): 0.46 ± 0.10 % ID/g
- Uptake Shoulder joint ([2]; 1 h after administration): 2.35 ± 0.44 % ID/g
- Uptake Tumour (max) ([2]; 1 h after administration): 10.98 ± 2.02 % ID/g
- Uptake Tumour (mean) ([2]; 1 h after administration): 6.39 ± 0.92 % ID/g
- Ratio Tumour/brain ([2]; 2.0 h): 8.95
- Ratio Tumour/gallbladder ([2]; 2.0 h): 5.34
- Ratio Tumour/kidney ([2]; 2.0 h): 3.42
- Ratio Tumour/liver ([2]; 2.0 h): 5.71
- Ratio Tumour/lung ([2]; 2.0 h): 5.71
- Ratio Tumour/muscle ([2]; 2.0 h): 10.21
- Ratio Tumour/shoulder joint ([2]; 2.0 h): 2.77
- Uptake Brain ([2]; 2 h after administration): 0.65 ± 0.21 % ID/g
- Uptake Gallbladder ([2]; 2 h after administration): 1.09 ± 0.36 % ID/g
- Uptake Kidney ([2]; 2 h after administration): 1.70 ± 0.17 % ID/g
- Uptake Liver ([2]; 2 h after administration): 1.02 ± 0.23 % ID/g
- Uptake Lung ([2]; 2 h after administration): 1.02 ± 0.21 % ID/g
- Uptake Muscle ([2]; 2 h after administration): 0.57 ± 0.27 % ID/g
- Uptake Shoulder joint ([2]; 2 h after administration): 2.10 ± 0.36 % ID/g
- Uptake Tumour (max) ([2]; 2 h after administration): 10.38 ± 2.02 % ID/g
- Uptake Tumour (mean) ([2]; 2 h after administration): 5.82 ± 1.01 % ID/g
- Ratio Tumour/brain ([2]; 4.0 h): 8.20
- Ratio Tumour/gallbladder ([2]; 4.0 h): 4.75
- Ratio Tumour/kidney ([2]; 4.0 h): 3.34
- Ratio Tumour/liver ([2]; 4.0 h): 4.47
- Ratio Tumour/lung ([2]; 4.0 h): 5.43
- Ratio Tumour/muscle ([2]; 4.0 h): 10.74
- Ratio Tumour/shoulder joint ([2]; 4.0 h): 2.59
- Uptake Brain ([2]; 4 h after administration): 0.55 ± 0.17 % ID/g
- Uptake Gallbladder ([2]; 4 h after administration): 0.95 ± 0.46 % ID/g
- Uptake Kidney ([2]; 4 h after administration): 1.35 ± 0.23 % ID/g
- Uptake Liver ([2]; 4 h after administration): 1.01 ± 0.29 % ID/g
- Uptake Lung ([2]; 4 h after administration): 0.83 ± 0.20 % ID/g
- Uptake Muscle ([2]; 4 h after administration): 0.42 ± 0.10 % ID/g
- Uptake Shoulder joint ([2]; 4 h after administration): 1.74 ± 0.42 % ID/g
- Uptake Tumour (max) ([2]; 4 h after administration): 12.40 ± 0.85 % ID/g
- Uptake Tumour (mean) ([2]; 4 h after administration): 4.51 ± 0.28 % ID/g

— patent EP4711362A1, “LIGAND TARGETING FIBROBLAST ACTIVATION PROTEIN” (Jiangsu Hengrui Pharmaceuticals Co., Ltd., priority 2023, dated 2024)
